Laboratory results published in patent EP0407583A1, “DERIVATIVES OF DICHLOR[…] ACYLAMIDO[…] AND INSECTICIDAL, FU[…] HEMATOCIDAL PREPARATIONS BASED ON THEM” (priority 1989, dated 1990).

Assays:
Botrytis cinereae [1] = assay: Inhibition of phytopathogenic fungi, field test on affected potato plants; type: in vivo; details: 5 m^2 plots of affected potato plants sprayed
Excerpt: (§1) For field tests the plots of 5 m^2 in size with potato plants affected by Fusarium moniliforme, Venturia inaequalis, Rhyzoctonia violaceae, Botrytis cinereae, Verticillium albo-atrum, Diplodia zeae, Fusarium oxysporum, Rhoma betae, Rhyzoctonia aderholdii, Aspergillus niger, Alternaria sobani, Botrytis allii, Aspergillus fumigatis, Fusarium culmorum, Penicillium cyclopium were sprayed with the fungicide of the invention. To compare, the similar plots of the affected potato plants were aprayed with the known compositions indicated above.

Rhyzoctonia aderholdii [2] = assay: as above; type: in vivo; details: 5 m^2 plots of affected potato plants sprayed
Excerpt: as §1

Fusarium moniliforme [3] = assay: as above; type: in vivo; details: 5 m^2 plots of affected potato plants sprayed
Excerpt: as §1

Venturia inaequalis [4] = assay: as above; type: in vivo; details: 5 m^2 plots of affected potato plants sprayed
Excerpt: as §1

Fusarium oxysporum [5] = assay: as above; type: in vivo; details: 5 m^2 plots of affected potato plants sprayed
Excerpt: as §1

Diplodia zeae [6] = assay: as above; type: in vivo; details: 5 m^2 plots of affected potato plants sprayed
Excerpt: as §1

Verticillium albo-atrum [7] = assay: as above; type: in vivo; details: 5 m^2 plots of affected potato plants sprayed
Excerpt: as §1

Fusarium culmorum [8] = assay: as above; type: in vivo; details: 5 m^2 plots of affected potato plants sprayed
Excerpt: as §1

Botrytis allii [9] = assay: as above; type: in vivo; details: 5 m^2 plots of affected potato plants sprayed
Excerpt: as §1

Rhyzoctonia violaceae [10] = assay: as above; type: in vivo; details: 5 m^2 plots of affected potato plants sprayed
Excerpt: as §1

Alternaria sobani [11] = assay: as above; type: in vivo; details: 5 m^2 plots of affected potato plants sprayed
Excerpt: as §1

Aspergillus fumigatis [12] = assay: as above; type: in vivo; details: 5 m^2 plots of affected potato plants sprayed
Excerpt: as §1

Rhoma betae [13] = assay: as above; type: in vivo; details: 5 m^2 plots of affected potato plants sprayed
Excerpt: as §1

Penicillium cyclopium [14] = assay: as above; type: in vivo; details: 5 m^2 plots of affected potato plants sprayed
Excerpt: as §1

Aspergillus niger [15] = assay: as above; type: in vivo; details: 5 m^2 plots of affected potato plants sprayed
Excerpt: as §1

Botrytis cinereae [16] = assay: Inhibition of phytopathogenic fungi growth, laboratory test on potato-dextrose agar; type: cell-based; details: active principle 0.01 % by mass in potato-dextrose agar
Experimental: (§2) A fungicidal composition based on this compound was prepared in the form of a 0.01% solution thereof in distilled water. A fungicidal action of the composition, according to the invention, was tested for inhibition of vegetative fungi growth such as Fusarium moniliforme, Ventura inaequalis, Rhyzoctonia ciolaceae, Botrytis cinereae, Verticillium albo-atrum, Diplodia zeae, Fusarium oxysporum, Rhoma betae, Rhyzoctonia aderholdii, Aspergillus niger, Alternaria sobani, Botrytis allii, Aspergillus fumigatis, Fusarium culmorum, Penicillium cyclopium affecting potato, sugar beet, cotton seeds either in laboratory or field conditions. For testing it to the Petri dishes containing potato-dextrose agar the composition of the invention was.added at the concentration of an active principle of 0.01 % by mass. The Petri dishes containing the same agar culture were inoculated with a mycelium of phytopathogenic fungi. For control dishes the phytopathogenic fungi were inoculated on agar without using the composition of the invention. A fungicidal effect of the composition, according to the invention was tested in comparison with the known fungicidal compositions based on 2,3-dichloro-1,4-naphthoquinone, zinc N,N'-ethylene-bis-dithiocarbamate and tetramethylthiuram disulphide.

Rhyzoctonia aderholdii [17] = assay: as above; type: cell-based; details: active principle 0.01 % by mass in potato-dextrose agar
Experimental: as §2

Fusarium moniliforme [18] = assay: as above; type: cell-based; details: active principle 0.01 % by mass in potato-dextrose agar
Experimental: as §2

Venturia inaequalis [19] = assay: as above; type: cell-based; details: active principle 0.01 % by mass in potato-dextrose agar
Experimental: as §2

Fusarium oxysporum [20] = assay: as above; type: cell-based; details: active principle 0.01 % by mass in potato-dextrose agar
Experimental: as §2

Diplodia zeae [21] = assay: as above; type: cell-based; details: active principle 0.01 % by mass in potato-dextrose agar
Experimental: as §2

Verticillium albo-atrum [22] = assay: as above; type: cell-based; details: active principle 0.01 % by mass in potato-dextrose agar
Experimental: as §2

Fusarium culmorum [23] = assay: as above; type: cell-based; details: active principle 0.01 % by mass in potato-dextrose agar
Experimental: as §2

Botrytis allii [24] = assay: as above; type: cell-based; details: active principle 0.01 % by mass in potato-dextrose agar
Experimental: as §2

Rhyzoctonia violaceae [25] = assay: as above; type: cell-based; details: active principle 0.01 % by mass in potato-dextrose agar
Experimental: as §2

Alternaria sobani [26] = assay: as above; type: cell-based; details: active principle 0.01 % by mass in potato-dextrose agar
Experimental: as §2

Aspergillus fumigatis [27] = assay: as above; type: cell-based; details: active principle 0.01 % by mass in potato-dextrose agar
Experimental: as §2

Rhoma betae [28] = assay: as above; type: cell-based; details: active principle 0.01 % by mass in potato-dextrose agar
Experimental: as §2

Penicillium cyclopium [29] = assay: as above; type: cell-based; details: active principle 0.01 % by mass in potato-dextrose agar
Experimental: as §2

Aspergillus niger [30] = assay: as above; type: cell-based; details: active principle 0.01 % by mass in potato-dextrose agar
Experimental: as §2

Solubility (qualitative) = details: water, alcohols, acetone
[31] = test system: leaves of tomato and cucumber; assay: Phytotoxic effect on leaves; type: in vivo; details: nematocidal composition, 1% solution in distilled water
[32] = test system: invasion larvae of gall nematodes; assay: Nematocidal effect on invasion larvae, experimental (object glass) test; type: in vivo; details: 1% solution in distilled water; 100 invasion larvae; 24 hours
Experimental: A nematocidal effect of the composition, according to the invention, was tested on invasion larvae of gall nematodes. To this end, 1 droplet of a suspension containing 100 invasion larvae of gall nematodes was placed onto the object glasses with cells. 1 droplet of the composition of the invention was added thereinto. 1 drop of distilled water was added to the control cell instead of the composition, according to the invention. The glasses with test and control cells were placed onto Petri dish with a moisten ashless filter, and 24 hours later the killed nematodes were recorded. The tests were 3-fold repeated. The study of a nematocidal activity was conducted in comparison with a known nematocidal composition based on 0,0-dimethyl-0-/2-(N,N'-diethylcarbamoyl)-1-methyl-2-chlorovinyl/ /phosphate.

gall nematodes = assay: Nematocidal effect, field test on affected tomato plants; type: in vivo; details: 5 m^2 plots of tomato plants affected by nematodes
Experimental: In the field conditions, the plots of 5 m^2 in size of tomato plants affected by nematodes were treated with the claimed nematocidal compositions and the known nematocides.

## O=C(NP(=O)(Nc1ccc(Cl)cc1[N+](=O)[O-])Nc1ccc(Cl)cc1[N+](=O)[O-])c1ccc(Br)cc1 [Example 16, para-bromobenzoylamidophosphoric acid di-para-chloro-ortho--nitroanilide]
Botrytis cinereae [1]
  Inhibition of growth of phytopathogenic fungi colonies, % Botrytis cinereae test field: 100%
Rhyzoctonia aderholdii [2]
  Inhibition of growth of phytopathogenic fungi colonies, % Rhyzoctonia aderholdii test field: 100%
Fusarium moniliforme [3]
  Inhibition of growth of phytopathogenic fungi colonies, % Fusatium monili-forme test field: 73%
Venturia inaequalis [4]
  Inhibition of growth of phytopathogenic fungi colonies, % Venturia inaequalis test field: 100%
Fusarium oxysporum [5]
  Inhibition of growth of phytopathogenic fungi colonies, % Fusarium oxysporum test field: 97%
Diplodia zeae [6]
  Inhibition of growth of phytopathogenic fungi colonies, % Diplodia zeae test field: 100%
Verticillium albo-atrum [7]
  Inhibition of growth of phytopathogenic fungi colonies, % Verticillium albo--atrum test field: 100%
Fusarium culmorum [8]
  Inhibition of growth of phytopathogenic fungi colonies, % Fusarium culmorum Tests field: 99%
Botrytis allii [9]
  Inhibition of growth of phytopathogenic fungi colonies, % Botrytis allii test field: 100%
Rhyzoctonia violaceae [10]
  Inhibition of growth of phytopathogenic fungi colonies, % Rhyzoctonia violaceae test field: 86%
Alternaria sobani [11]
  Inhibition of growth of phytopathogenic fungi colonies, % Alternaria sobani test field: 98%
Aspergillus fumigatis [12]
  Inhibition of growth of phytopathogenic fungi colonies, % Aspergillus fumigatis Tests field: 91%
Rhoma betae [13]
  Inhibition of growth of phytopathogenic fungi colonies, % Rhoma betae test field: 99%
Penicillium cyclopium [14]
  Inhibition of growth of phytopathogenic fungi colonies, % Penicillium cyclopium Tests field: 79%
Aspergillus niger [15]
  Inhibition of growth of phytopathogenic fungi colonies, % Aspergillus niger test field: 100%
Botrytis cinereae [16]
  Inhibition of growth of phytopathogenic fungi colonies, % Botrytis cinereae test laboratory: 100%
Rhyzoctonia aderholdii [17]
  Inhibition of growth of phytopathogenic fungi colonies, % Rhyzoctonia aderholdii test laboratory: 100%
Fusarium moniliforme [18]
  Inhibition of growth of phytopathogenic fungi colonies, % Fusatium monili-forme test laboratory: 74%
Venturia inaequalis [19]
  Inhibition of growth of phytopathogenic fungi colonies, % Venturia inaequalis test laboratory: 100%
Fusarium oxysporum [20]
  Inhibition of growth of phytopathogenic fungi colonies, % Fusarium oxysporum test laboratory: 98%
Diplodia zeae [21]
  Inhibition of growth of phytopathogenic fungi colonies, % Diplodia zeae test laboratory: 100%
Verticillium albo-atrum [22]
  Inhibition of growth of phytopathogenic fungi colonies, % Verticillium albo--atrum test laboratory: 100%
Fusarium culmorum [23]
  Inhibition of growth of phytopathogenic fungi colonies, % Fusarium culmorum Tests laboratory: 100%
Botrytis allii [24]
  Inhibition of growth of phytopathogenic fungi colonies, % Botrytis allii test laboratory: 100%
Rhyzoctonia violaceae [25]
  Inhibition of growth of phytopathogenic fungi colonies, % Rhyzoctonia violaceae test laboratory: 87%
Alternaria sobani [26]
  Inhibition of growth of phytopathogenic fungi colonies, % Alternaria sobani test laboratory: 100%
Aspergillus fumigatis [27]
  Inhibition of growth of phytopathogenic fungi colonies, % Aspergillus fumigatis Tests laboratory: 92%
Rhoma betae [28]
  Inhibition of growth of phytopathogenic fungi colonies, % Rhoma betae test laboratory: 100%
Penicillium cyclopium [29]
  Inhibition of growth of phytopathogenic fungi colonies, % Penicillium cyclopium Tests laboratory: 80%
Aspergillus niger [30]
  Inhibition of growth of phytopathogenic fungi colonies, % Aspergillus niger test laboratory: 100%
Solubility (qualitative)
  solubility: soluble in water, alcohols, acetone

## O=C(NP(=O)(Nc1ccccc1Cl)Nc1ccccc1Cl)c1ccc(Br)cc1 [Example 17, para-bromobenzoylamidophosphoric acid di-ortho-chloroanilide]
[31]
  phytotoxical effect on leaves of tomato and cucumber: no phytotoxical effect
Solubility (qualitative)
  solubility: soluble in water, alcohols, acetone
[32]
  Death of larvae, %, conditions experimental: 100%
Gall nematodes
  Death of larvae, %, conditions field: 100%

## O=C(NP(=O)(Nc1ccc(Cl)cc1)Nc1ccc(Cl)cc1)c1ccc(Br)cc1 [Example 18, para-bromobenzoylamidophosphoric acid di-para-chloroanilide]
Solubility (qualitative)
  solubility: soluble in water, alcohols, acetone
[32]
  Death of larvae, %, conditions experimental: 89%
Gall nematodes
  Death of larvae, %, conditions field: 92%
